{"source": "patent US20100267561A1", "about": "“HERBICIDAL PYRIDAZINONE DERIVATIVES” (priority 2007, published 2010)", "test_in_all_cases": "Test E pre-/postemergence plant response", "type_in_all_cases": "in vivo", "key": {"[1]": {"system": "Italian ryegrass (Lolium multiflorum)", "settings": "scale 0 to 100", "outline": "(§1)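 Plant response was judged by eye relative to controls, 0 meaning no effect and 100 complete control, after 14 to 21 days under greenhouse conditions. Compound was formulated in a non-phytotoxic solvent mixture with surfactant.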"}, "[2]": {"system": "black mustard (Brassica nigra)", "settings": "scale 0 to 100", "outline": "as §1"}, "[3]": {"system": "common groundsel (Senecio vulgaris)", "settings": "Postemergence, scale 0 to 100", "outline": "as §1"}, "[4]": {"system": "common purslane (Portulaca oleracea)", "settings": "scale 0 to 100", "outline": "as §1"}, "[5]": {"system": "goosegrass (Eleusine indica)", "settings": "scale 0 to 100", "outline": "as §1"}, "[6]": {"system": "guineagrass (Panicum maximum)", "settings": "scale 0 to 100", "outline": "as §1"}, "[7]": {"system": "large crabgrass (Digitaria sanguinalis)", "settings": "scale 0 to 100", "outline": "as §1"}, "[8]": {"system": "pitted morningglory (Ipomoea lacunosa)", "settings": "scale 0 to 100", "outline": "as §1"}, "[9]": {"system": "purple nutsedge (Cyperus rotundus)", "settings": "scale 0 to 100", "outline": "as §1"}, "[10]": {"system": "quackgrass (Elytrigia repens)", "settings": "scale 0 to 100", "outline": "as §1"}, "[11]": {"system": "southern (S.) sandbur (Cenchrus echinatus)", "settings": "scale 0 to 100", "outline": "as §1"}, "[12]": {"system": "surinam grass (Brachiaria decumbens)", "settings": "scale 0 to 100", "outline": "as §1"}}, "data": [{"smiles": "Cn1ncc(O)c(-c2nn(-c3ccc(Cl)cc3)cc2Br)c1=O", "note": "[Compound 31]", "values": [{"measurement": "Plant response rating, Ryegrass, Italian", "setting": "[1]; 16 g ai/ha, Preemergence", "result": 65}, {"measurement": "Plant response rating, Ryegrass, Italian", "setting": "[1]; 31 g ai/ha, Preemergence", "result": 90}, {"measurement": "Plant response rating, Ryegrass, Italian", "setting": "[1]; 62 g ai/ha, Preemergence", "result": 100}, {"measurement": "Plant response rating, Ryegrass, Italian", "setting": "[1]; Postemergence, 8 g ai/ha", "result": 30}, {"measurement": "Plant response rating, Ryegrass, Italian", "setting": "[1]; Postemergence, 16 g ai/ha", "result": 35}, {"measurement": "Plant response rating, Ryegrass, Italian", "setting": "[1]; Postemergence, 31 g ai/ha", "result": 50}, {"measurement": "Plant response rating, Ryegrass, Italian", "setting": "[1]; Postemergence, 62 g ai/ha", "result": 90}, {"measurement": "Plant response rating, Mustard, Black", "setting": "[2]; 8 g ai/ha, Preemergence", "result": 0}, {"measurement": "Plant response rating, Mustard, Black", "setting": "[2]; 16 g ai/ha, Preemergence", "result": 0}, {"measurement": "Plant response rating, Mustard, Black", "setting": "[2]; 31 g ai/ha, Preemergence", "result": 0}, {"measurement": "Plant response rating, Mustard, Black", "setting": "[2]; 62 g ai/ha, Preemergence", "result": 0}, {"measurement": "Plant response rating, Mustard, Black", "setting": "[2]; Postemergence, 8 g ai/ha", "result": 0}, {"measurement": "Plant response rating, Mustard, Black", "setting": "[2]; Postemergence, 16 g ai/ha", "result": 0}, {"measurement": "Plant response rating, Mustard, Black", "setting": "[2]; Postemergence, 31 g ai/ha", "result": 0}, {"measurement": "Plant response rating, Mustard, Black", "setting": "[2]; Postemergence, 62 g ai/ha", "result": 0}, {"measurement": "Plant response rating, Groundsel", "setting": "[3]; 8 g ai/ha", "result": 0}, {"measurement": "Plant response rating, Groundsel", "setting": "[3]; 16 g ai/ha", "result": 0}, {"measurement": "Plant response rating, Purslane", "setting": "[4]; 16 g ai/ha, Preemergence", "result": 0}, {"measurement": "Plant response rating, Purslane", "setting": "[4]; 31 g ai/ha, Preemergence", "result": 0}, {"measurement": "Plant response rating, Purslane", "setting": "[4]; 62 g ai/ha, Preemergence", "result": 0}, {"measurement": "Plant response rating, Purslane", "setting": "[4]; Postemergence, 8 g ai/ha", "result": 0}, {"measurement": "Plant response rating, Purslane", "setting": "[4]; Postemergence, 16 g ai/ha", "result": 0}, {"measurement": "Plant response rating, Purslane", "setting": "[4]; Postemergence, 31 g ai/ha", "result": 0}, {"measurement": "Plant response rating, Purslane", "setting": "[4]; Postemergence, 62 g ai/ha", "result": 0}, {"measurement": "Plant response rating, Goosegrass", "setting": "[5]; 8 g ai/ha, Preemergence", "result": 20}, {"measurement": "Plant response rating, Goosegrass", "setting": "[5]; 16 g ai/ha, Preemergence", "result": 35}, {"measurement": "Plant response rating, Goosegrass", "setting": "[5]; 31 g ai/ha, Preemergence", "result": 100}, {"measurement": "Plant response rating, Goosegrass", "setting": "[5]; 62 g ai/ha, Preemergence", "result": 100}, {"measurement": "Plant response rating, Goosegrass", "setting": "[5]; Postemergence, 8 g ai/ha", "result": 35}, {"measurement": "Plant response rating, Goosegrass", "setting": "[5]; Postemergence, 16 g ai/ha", "result": 50}, {"measurement": "Plant response rating, Goosegrass", "setting": "[5]; Postemergence, 31 g ai/ha", "result": 70}, {"measurement": "Plant response rating, Goosegrass", "setting": "[5]; Postemergence, 62 g ai/ha", "result": 75}, {"measurement": "Plant response rating, Guineagrass", "setting": "[6]; 16 g ai/ha, Preemergence", "result": 90}, {"measurement": "Plant response rating, Guineagrass", "setting": "[6]; 31 g ai/ha, Preemergence", "result": 100}, {"measurement": "Plant response rating, Guineagrass", "setting": "[6]; 62 g ai/ha, Preemergence", "result": 100}, {"measurement": "Plant response rating, Guineagrass", "setting": "[6]; Postemergence, 8 g ai/ha", "result": 75}, {"measurement": "Plant response rating, Guineagrass", "setting": "[6]; Postemergence, 16 g ai/ha", "result": 80}, {"measurement": "Plant response rating, Guineagrass", "setting": "[6]; Postemergence, 31 g ai/ha", "result": 85}, {"measurement": "Plant response rating, Guineagrass", "setting": "[6]; Postemergence, 62 g ai/ha", "result": 90}, {"measurement": "Plant response rating, Crabgrass, Large", "setting": "[7]; 8 g ai/ha, Preemergence", "result": 0}, {"measurement": "Plant response rating, Crabgrass, Large", "setting": "[7]; 16 g ai/ha, Preemergence", "result": 40}, {"measurement": "Plant response rating, Crabgrass, Large", "setting": "[7]; 31 g ai/ha, Preemergence", "result": 75}, {"measurement": "Plant response rating, Crabgrass, Large", "setting": "[7]; 62 g ai/ha, Preemergence", "result": 95}, {"measurement": "Plant response rating, Crabgrass, Large", "setting": "[7]; Postemergence, 8 g ai/ha", "result": 60}, {"measurement": "Plant response rating, Crabgrass, Large", "setting": "[7]; Postemergence, 16 g ai/ha", "result": 65}, {"measurement": "Plant response rating, Crabgrass, Large", "setting": "[7]; Postemergence, 31 g ai/ha", "result": 75}, {"measurement": "Plant response rating, Crabgrass, Large", "setting": "[7]; Postemergence, 62 g ai/ha", "result": 80}, {"measurement": "Plant response rating, Morningglory", "setting": "[8]; 16 g ai/ha, Preemergence", "result": 0}, {"measurement": "Plant response rating, Morningglory", "setting": "[8]; 31 g ai/ha, Preemergence", "result": 0}, {"measurement": "Plant response rating, Morningglory", "setting": "[8]; 62 g ai/ha, Preemergence", "result": 0}, {"measurement": "Plant response rating, Morningglory", "setting": "[8]; Postemergence, 8 g ai/ha", "result": 0}, {"measurement": "Plant response rating, Morningglory", "setting": "[8]; Postemergence, 16 g ai/ha", "result": 0}, {"measurement": "Plant response rating, Morningglory", "setting": "[8]; Postemergence, 31 g ai/ha", "result": 0}, {"measurement": "Plant response rating, Morningglory", "setting": "[8]; Postemergence, 62 g ai/ha", "result": 0}, {"measurement": "Plant response rating, Nutsedge, Purple", "setting": "[9]; 16 g ai/ha, Preemergence", "result": 0}, {"measurement": "Plant response rating, Nutsedge, Purple", "setting": "[9]; 31 g ai/ha, Preemergence", "result": 0}, {"measurement": "Plant response rating, Nutsedge, Purple", "setting": "[9]; 62 g ai/ha, Preemergence", "result": 0}, {"measurement": "Plant response rating, Nutsedge, Purple", "setting": "[9]; Postemergence, 8 g ai/ha", "result": 0}, {"measurement": "Plant response rating, Nutsedge, Purple", "setting": "[9]; Postemergence, 16 g ai/ha", "result": 0}, {"measurement": "Plant response rating, Nutsedge, Purple", "setting": "[9]; Postemergence, 31 g ai/ha", "result": 0}, {"measurement": "Plant response rating, Nutsedge, Purple", "setting": "[9]; Postemergence, 62 g ai/ha", "result": 0}, {"measurement": "Plant response rating, Quackgrass", "setting": "[10]; 16 g ai/ha, Preemergence", "result": 0}, {"measurement": "Plant response rating, Quackgrass", "setting": "[10]; 31 g ai/ha, Preemergence", "result": 20}, {"measurement": "Plant response rating, Quackgrass", "setting": "[10]; 62 g ai/ha, Preemergence", "result": 65}, {"measurement": "Plant response rating, Quackgrass", "setting": "[10]; Postemergence, 8 g ai/ha", "result": 0}, {"measurement": "Plant response rating, Quackgrass", "setting": "[10]; Postemergence, 16 g ai/ha", "result": 30}, {"measurement": "Plant response rating, Quackgrass", "setting": "[10]; Postemergence, 31 g ai/ha", "result": 30}, {"measurement": "Plant response rating, Quackgrass", "setting": "[10]; Postemergence, 62 g ai/ha", "result": 50}, {"measurement": "Plant response rating, Sandbur, S.", "setting": "[11]; 16 g ai/ha, Preemergence", "result": 15}, {"measurement": "Plant response rating, Sandbur, S.", "setting": "[11]; 31 g ai/ha, Preemergence", "result": 20}, {"measurement": "Plant response rating, Sandbur, S.", "setting": "[11]; 62 g ai/ha, Preemergence", "result": 90}, {"measurement": "Plant response rating, Sandbur, S.", "setting": "[11]; Postemergence, 8 g ai/ha", "result": 0}, {"measurement": "Plant response rating, Sandbur, S.", "setting": "[11]; Postemergence, 16 g ai/ha", "result": 70}, {"measurement": "Plant response rating, Sandbur, S.", "setting": "[11]; Postemergence, 31 g ai/ha", "result": 75}, {"measurement": "Plant response rating, Sandbur, S.", "setting": "[11]; Postemergence, 62 g ai/ha", "result": 75}, {"measurement": "Plant response rating, Surinam Grass", "setting": "[12]; 16 g ai/ha, Preemergence", "result": 20}, {"measurement": "Plant response rating, Surinam Grass", "setting": "[12]; 31 g ai/ha, Preemergence", "result": 95}, {"measurement": "Plant response rating, Surinam Grass", "setting": "[12]; 62 g ai/ha, Preemergence", "result": 95}, {"measurement": "Plant response rating, Surinam Grass", "setting": "[12]; Postemergence, 8 g ai/ha", "result": 20}, {"measurement": "Plant response rating, Surinam Grass", "setting": "[12]; Postemergence, 16 g ai/ha", "result": 50}, {"measurement": "Plant response rating, Surinam Grass", "setting": "[12]; Postemergence, 31 g ai/ha", "result": 50}, {"measurement": "Plant response rating, Surinam Grass", "setting": "[12]; Postemergence, 62 g ai/ha", "result": 75}]}]}
